In PubChem BioAssay (NCI):
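Results reflect a 48-hour exposure of cells in 96-well plates to compound at five concentrations. GI50 = concentration required for 50% inhibition of growth. TGI denotes the concentration required for complete inhibition of growth.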

Tests used:
Assay in all cases: inhibition of tumour cell growth, NCI panel, 48 h
DU-145 prostate = tested on: DU-145 prostate
HCT-116 colon = tested on: HCT-116 colon
MALME-3M melanoma = tested on: MALME-3M melanoma
MDA-MB-435 = tested on: MDA-MB-435
NCI-H226 lung = tested on: NCI-H226 lung
NCI-H522 lung = tested on: NCI-H522 lung
NCI/ADR-RES ovarian = tested on: NCI/ADR-RES ovarian
OVCAR-3 ovarian = tested on: OVCAR-3 ovarian
OVCAR-5 ovarian = tested on: OVCAR-5 ovarian
OVCAR-8 ovarian = tested on: OVCAR-8 ovarian
UACC-257 melanoma = tested on: UACC-257 melanoma
BT-549 breast = tested on: BT-549 breast
T-47D breast = tested on: T-47D breast

| SMILES | TGI (DU-145 prostate) [µM] | TGI (HCT-116 colon) [µM] | TGI (MALME-3M melanoma) [µM] | TGI (MDA-MB-435) [µM] | TGI (NCI-H226 lung) [µM] | TGI (NCI-H522 lung) [µM] | TGI (NCI/ADR-RES ovarian) [µM] | TGI (OVCAR-3 ovarian) [µM] | TGI (OVCAR-5 ovarian) [µM] | TGI (OVCAR-8 ovarian) [µM] | TGI (UACC-257 melanoma) [µM] | TGI (BT-549 breast) [µM] | TGI (T-47D breast) [µM] | GI50 (MDA-MB-435) [nM] | GI50 (OVCAR-5 ovarian) [nM] | GI50 (DU-145 prostate) [nM] | GI50 (OVCAR-3 ovarian) [nM] |
| --- | --- | --- | --- | --- | --- | --- | --- | --- | --- | --- | --- | --- | --- | --- | --- | --- | --- |
| Nc1ncc2c(n1)-c1ccccc1OC2N1CCOCC1 (stereo unspecified) | > 100 | > 100 | > 100 | > 100 | > 100 | > 100 | > 100 | > 100 | > 100 | > 100 | > 100 |  |  |  |  |  |  |
| CC(C)CC1NC(=O)CCC(NC(=O)C(Cc2ccc(O)cc2)NC(=O)OCc2ccccc2)C(=O)NC(Cc2ccccc2)C(=O)NC(Cc2ccccc2)NC1=O (stereo unspecified) | > 100 | > 100 | > 100 | > 100 | > 100 |  | > 100 | > 100 | > 100 | > 100 | > 100 | > 100 | > 100 |  |  |  |  |
| O=C1c2c(O)cccc2Cc2cc(CO)cc(O)c21 |  | 16.7 | 5.37 | 15.5 | 17.3 |  | 15.1 | 5.03 | 15.2 | 12.8 | 5.64 | 86 | 11.9 |  |  |  |  |
| Cc1ccc(O)c(C(c2cc(C)ccc2O)c2cc([N+](=O)[O-])ccc2O)c1 | 50.3 | 56.1 |  | 45.3 | 55.8 | 30 | 66.8 | 25.4 | 28.8 | 25.5 | 37.6 |  | 77.8 |  |  |  |  |
| O=C(O)CCC(NC(=O)c1ccc(Oc2nc3ccccc3nc2-c2ccccc2)cc1)C(=O)O (stereo unspecified) | > 100 | > 100 | > 100 | > 100 | > 100 | > 100 | > 100 | > 100 | > 100 | > 100 | > 100 |  | > 100 |  |  |  |  |
| c1cc2c3ccsc3c3sccc3c2s1 | > 100 | > 100 |  | > 100 | > 100 |  | > 100 | > 100 | > 100 | > 100 | > 100 | > 100 | > 100 |  |  |  |  |
| N#CC(C#N)=Cn1c(=S)[nH]c2ccc([N+](=O)[O-])cc21 | > 100 | > 100 | > 100 | > 100 | > 100 | > 100 | > 100 | > 100 | > 100 | > 100 | > 100 |  | > 100 |  |  |  |  |
| CC12CCC(=O)[C@@]1(C)CCCC2O (stereo partly specified) | > 100 | > 100 | > 100 |  | > 100 | > 100 | > 100 |  | > 100 | > 100 | > 100 | > 100 | > 100 |  |  |  |  |
| CN1N=C(c2ccccc2)c2cc(Cl)ccc2N=C1N/N=C/c1ccc(N(C)C)cc1 | > 100 | > 100 |  | > 100 | > 100 | > 100 | > 100 | > 100 |  | > 100 | > 100 | > 100 | > 100 |  |  |  |  |
| CC(C)(C)OC(=O)C1/C(=C/CBr)CN1C(=O)OC(C)(C)C (stereo unspecified) |  | 26.7 | 35.4 | 29.7 |  |  | 72.1 | 28.6 | 35.2 | 44.2 | 32.3 | 36.2 |  |  |  |  |  |
| O=Cc1ccc(-c2ccc(S(=O)(=O)O)cc2)o1 | > 100 | > 100 | > 100 | > 100 | > 100 | > 100 | > 100 | > 100 | > 100 | > 100 | > 100 | > 100 |  |  |  |  |  |
| CCOC(=O)c1nc2cc(F)cc(F)c2[nH]c1=O | > 100 | > 100 |  | > 100 | > 100 |  | > 100 | > 100 | > 100 | > 100 | > 100 | > 100 | > 100 |  |  |  |  |
| CCOC(=O)c1csc(-c2cn(C)c3c2C(=O)C(OC)=CC3=O)n1 | 91.3 | > 100 |  | 11.1 | > 100 | > 100 | > 100 | > 31.9 | > 100 | > 100 | > 78.9 | > 100 | > 100 |  |  |  |  |
| O=C1C2C3C=C4c5ccccc5N(c5ccccc5)C4([C@@H]2C(=O)N1c1ccc(F)cc1)[C@H]1C(=O)N(c2ccc(F)cc2)C(=O)[C@@H]31 (stereo partly specified) |  |  | > 100 |  | > 100 | > 100 |  | > 100 | > 100 | > 100 | > 100 |  |  |  |  |  |  |
| COc1ccc2[nH]c3c(O)c(-c4c(C)cc5c([nH]c6ccc(OC)cc65)c4O)c(C)cc3c2c1 | 7.97 | 7.63 |  | 8 | 9.06 | 9.2 | 8.13 | 7.79 | 7.34 | 8.39 | 8.32 | 8.2 | 13.8 | 4340 | 3820 |  |  |
| O=c1[nH]c(=O)n(C2CC(O)C(COP(=O)(OCC(Cl)(Cl)Cl)OCC(Cl)(Cl)Cl)O2)cc1F (stereo unspecified) | > 100 | > 100 | > 100 | > 100 | > 100 | > 34.8 | > 100 | > 100 | > 100 | > 100 | > 100 |  | > 100 |  |  |  |  |
| COc1cc(/C=N/n2c(C)n[nH]c2=O)cc(OC)c1OC |  | > 100 | > 100 | > 100 | > 100 |  | > 100 | > 100 | > 100 | > 100 | > 100 | > 100 | > 100 |  |  |  |  |
| O=C(CCN1CCCC1)c1ccc(Oc2ccc(F)cc2)cc1 | > 100 | > 100 | > 100 | > 100 | > 100 |  | > 100 | > 100 | > 100 | > 100 | > 100 | > 100 |  |  |  |  |  |
| COC1(OC)C2C=CC1C([C@](C)(N)CO)C2 (stereo partly specified) | > 100 | > 100 | > 100 | > 100 | > 100 | > 100 |  | > 100 | > 100 | > 100 | > 100 | > 100 | > 100 |  |  |  |  |
| COC(=O)[C@H](C)N(C)C(=O)[C@H](C)N1[C@@H](c2ccccc2)COC1(C)C |  | > 100 | > 100 | > 100 | > 100 | > 100 | > 100 | > 100 | > 100 | > 100 | > 100 | > 100 | > 100 |  |  |  |  |
| Oc1ccc(/C=N/c2nccs2)c(O)c1 | > 100 | > 100 | > 100 |  | > 100 | > 100 | > 100 | > 100 | > 100 | > 100 | > 100 | > 100 |  |  |  |  |  |
| COc1ccc(NC(=O)NNS(=O)(=O)c2ccc(C)cc2)cc1 | > 100 | > 100 | > 100 | > 100 | > 100 | > 100 | > 100 |  | > 100 | > 100 | > 100 |  | > 100 |  |  |  |  |
| Clc1ccc(N2N=C(c3cccc(Nc4ccncc4)c3)CC2c2ccc(Br)cc2)cc1 (stereo unspecified) | 3.25 |  |  | 3.08 |  |  |  | 3.29 | 3.1 |  |  |  |  | 1650 | 1660 | 1800 | 1780 |
| CCN1C/C(=C\c2ccc(Cl)cc2)c2[nH]c(=O)c(C#N)c(-c3ccc(Cl)cc3)c2C1 | > 100 | > 100 | > 100 | > 100 | > 100 |  | > 100 | > 100 | > 100 |  | > 100 | > 100 | > 100 |  |  |  |  |
| O=C(O)CCC(NC(=O)c1ccc(CNc2nc3cc(C(F)(F)F)ccc3nc2C(=O)O)cc1)C(=O)O (stereo unspecified) | > 100 | > 100 | > 100 | > 100 | > 100 | > 100 | > 100 | > 100 | > 100 | > 100 | > 100 |  | > 100 |  |  |  |  |
| COc1cc2c(cc1OC)[C@H]1C(COC(=O)Nc3ccccc3)CN1CC2 (stereo partly specified) |  | > 100 | > 100 |  |  | > 100 |  | > 100 | > 100 | > 100 |  |  |  |  |  |  |  |
| N[C@H]1CCN(c2c(F)cc3c(=O)c(C(=O)O)cn4c3c2Oc2c-4ccc3c2ccc2ccccc23)C1 | > 62.7 | > 35.3 | > 100 | > 39.6 | > 100 |  | > 100 | > 100 | > 100 | > 100 |  | > 69.3 | > 100 |  |  |  |  |
| COc1cccc(CCn2c(N)c(C#N)c3ccc([N+](=O)[O-])cc3c2=O)c1 | > 46.4 | > 46.4 | > 31.6 | > 100 | > 31.6 |  | > 46.4 | > 31.6 | > 31.6 | > 46.4 | > 31.6 |  | > 46.4 |  |  |  |  |
| CCOC(=O)c1ccc(N(CCOS(=O)(=O)c2ccc(C)cc2)CCOS(=O)(=O)c2ccc(C)cc2)cc1 |  | > 100 | > 100 | > 100 |  | > 100 | > 100 | > 100 | > 100 | > 100 | > 100 | > 100 |  |  |  |  |  |
